# In patent US11053204B2, “Pyrimidinyloxy benzene derivatives as herbicides” (FMC Corporation, priority 2015, dated 2021):
# What was measured:
# Assay type in all cases: in vivo
# [1] = system: barnyardgrass (Echinochloa crus-galli); test: Test A postemergence, visual injury rating; details: 0 is no effect, 100 is complete control
# In short: (§1)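 Injury scores run from 0, no effect, to 100, complete control, judged by eye against untreated plants roughly 10 days after treatment. Chemicals carried a surfactant in a non-phytotoxic solvent and went onto loam–sand soil preemergence or onto one- to two-leaf seedlings postemergence.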
# [2] = system: blackgrass (Alopecurus myosuroides); test: Test A postemergence, visual injury rating; details: 0 is no effect, 100 is complete control
# In short: as §1
# [3] = system: galium (catchweed bedstraw, Galium aparine); test: Test A postemergence, visual injury rating; details: 0 is no effect, 100 is complete control
# In short: as §1
# [4] = system: blackgrass (Alopecurus myosuroides); test: Test C preemergence, plant response rating; details: Preemergence
# Source text: (§2) Seeds of plant species selected from blackgrass (Alopecurus myosuroides), ryegrass, Italian (Italian ryegrass, Lolium multiflorum), wheat (winter wheat, Triticum aestivum), galium (catchweed bedstraw, Galium aparine), corn (Zea mays), crabgrass, large (large crabgrass, Digitaria sanguinalis), foxtail, giant (giant foxtail, Setaria faberii), johnsongrass (Sorghum halepense), lambsquarters (Chenopodium album), morningglory (Ipomoea coccinea), nutsedge, yellow (yellow nutsedge, Cyperus esculentus), pigweed (Amaranthus retroflexus), ragweed (common ragweed, Ambrosia elatior), soybean (Glycine max), barnyardgrass (Echinochloa crus-galli), oilseed rape (Brassica napus), pigweed, palmer (palmer pigweed, Amaranthus palmeri), waterhemp (common waterhemp, Amaranthus rudis), velvetleaf (Abutilon theophrasti), kochia (Kochia scoparia), surinam grass (Brachiaria decumbens), nightshade (eastern black nightshade, Solanum ptycanthum), wild poinsettia (Euphorbia heterophylla), windgrass (Apera spica-venti), and oat, wild (wild oat Avena fatua), were planted into a blend of loam soil and sand or a silt loam soil and treated preemergence with test chemicals formulated in a non-phytotoxic solvent mixture which included a surfactant.
# (§3) At the same time, plants selected from these crop and weed species and also chickweed (common chickweed, Stellaria media), buckwheat, wild (wild buckwheat, Polygonum convolvulus), wild mustard (Sinapis arvensis), field poppy (Papaver rhoeas), field violet (Viola arvensis), geranium, cutleaf (cutleaf geranium, Geranium dissectum), Canada thistle (Cirsium arvense), and speedwell (bird's-eye speedwell, Veronica persica), were planted in pots containing Sunshine Redi-Earth® planting medium comprising spaghnum peat moss, vermiculite, starter nutrients and dolomitic limestone and treated with postemergence applications of test chemicals formulated in the same manner. Plants ranged in height from 2 to 18 cm (1- to 4-leaf stage) for postemergence treatments. Treated plants and controls were maintained in a greenhouse for 13 to 15 d, after which time all species were compared to controls and visually evaluated. Plant response ratings, summarized in Table C, are based on a scale of 0 to 100 where 0 is no effect and 100 is complete control. A dash (-) response means no test result.
# [5] = system: corn (Zea mays); test: Test C preemergence, plant response rating; details: Preemergence
# Source text: as §2, §3
# [6] = system: crabgrass, large (large crabgrass, Digitaria sanguinalis); test: Test C preemergence, plant response rating; details: Preemergence
# Source text: as §2, §3
# [7] = system: foxtail, giant (giant foxtail, Setaria faberii); test: Test C preemergence, plant response rating; details: Preemergence
# Source text: as §2, §3
# [8] = system: lambsquarters (Chenopodium album); test: Test C preemergence, plant response rating; details: Preemergence
# Source text: as §2, §3
# [9] = system: morningglory (Ipomoea coccinea); test: Test C preemergence, plant response rating; details: Preemergence
# Source text: as §2, §3
# [10] = system: nutsedge, yellow (yellow nutsedge, Cyperus esculentus); test: Test C preemergence, plant response rating; details: Preemergence
# Source text: as §2, §3
# [11] = system: oilseed rape (Brassica napus); test: Test C preemergence, plant response rating; details: Preemergence
# Source text: as §2, §3
# [12] = system: ragweed (common ragweed, Ambrosia elatior); test: Test C preemergence, plant response rating; details: Preemergence
# Source text: as §2, §3
# [13] = system: ryegrass, Italian (Italian ryegrass, Lolium multiflorum); test: Test C preemergence, plant response rating; details: Preemergence
# Source text: as §2, §3
# [14] = system: soybean (Glycine max); test: Test C preemergence, plant response rating; details: Preemergence
# Source text: as §2, §3
# [15] = system: velvetleaf (Abutilon theophrasti); test: Test C preemergence, plant response rating; details: Preemergence
# Source text: as §2, §3
# [16] = system: waterhemp (common waterhemp, Amaranthus rudis); test: Test C preemergence, plant response rating; details: Preemergence
# Source text: as §2, §3
# [17] = system: wheat (winter wheat, Triticum aestivum); test: Test C preemergence, plant response rating; details: Preemergence
# Source text: as §2, §3
smiles,measurement,setting,value
O=C(OCCC(F)(F)F)c1c(Br)cccc1Oc1ncc(Br)cn1 [Compound 33],Barnyardgrass plant response rating (0 to 100 scale),[1]; 125 g ai/ha,80
same,Barnyardgrass plant response rating (0 to 100 scale),[1]; 500 g ai/ha,100
same,Blackgrass plant response rating (0 to 100 scale),[2]; 125 g ai/ha,60
same,Blackgrass plant response rating (0 to 100 scale),[2]; 500 g ai/ha,90
same,Galium plant response rating (0 to 100 scale),[3]; 125 g ai/ha,100
same,Galium plant response rating (0 to 100 scale),[3]; 500 g ai/ha,100
same,"Plant response rating, Blackgrass","[4]; 62 g ai/ha, scale of 0 to 100",70
same,"Plant response rating, Blackgrass","[4]; 125 g ai/ha, scale of 0 to 100",90
same,"Plant response rating, Blackgrass","[4]; 16 g ai/ha, scale 0 to 100",0
same,"Plant response rating, Blackgrass","[4]; 31 g ai/ha, scale 0 to 100",10
same,"Plant response rating, Corn","[5]; 62 g ai/ha, scale of 0 to 100",10
same,"Plant response rating, Corn","[5]; 125 g ai/ha, scale of 0 to 100",10
same,"Plant response rating, Corn","[5]; 16 g ai/ha, scale 0 to 100",0
same,"Plant response rating, Corn","[5]; 31 g ai/ha, scale 0 to 100",0
same,"Plant response rating, Crabgrass, Large","[6]; 62 g ai/ha, scale of 0 to 100",100
same,"Plant response rating, Crabgrass, Large","[6]; 125 g ai/ha, scale of 0 to 100",100
same,"Plant response rating, Crabgrass, Large","[6]; 16 g ai/ha, scale 0 to 100",75
same,"Plant response rating, Crabgrass, Large","[6]; 31 g ai/ha, scale 0 to 100",98
same,"Plant response rating, Foxtail, Giant","[7]; 62 g ai/ha, scale of 0 to 100",98
same,"Plant response rating, Foxtail, Giant","[7]; 125 g ai/ha, scale of 0 to 100",100
same,"Plant response rating, Foxtail, Giant","[7]; 16 g ai/ha, scale 0 to 100",60
same,"Plant response rating, Foxtail, Giant","[7]; 31 g ai/ha, scale 0 to 100",95
same,"Plant response rating, Lambsquarters","[8]; 125 g ai/ha, scale of 0 to 100",85
same,"Plant response rating, Lambsquarters","[8]; 16 g ai/ha, scale 0 to 100",25
same,"Plant response rating, Lambsquarters","[8]; 31 g ai/ha, scale 0 to 100",60
same,"Plant response rating, Lambsquarters","[8]; 62 g ai/ha, scale 0 to 100",80
same,"Plant response rating, Morningglory","[9]; 125 g ai/ha, scale of 0 to 100",40
same,"Plant response rating, Morningglory","[9]; 16 g ai/ha, scale 0 to 100",0
same,"Plant response rating, Morningglory","[9]; 31 g ai/ha, scale 0 to 100",0
same,"Plant response rating, Morningglory","[9]; 62 g ai/ha, scale 0 to 100",25
same,"Plant response rating, Nutsedge, Yellow","[10]; 125 g ai/ha, scale of 0 to 100",5
same,"Plant response rating, Nutsedge, Yellow","[10]; 16 g ai/ha, scale 0 to 100",0
same,"Plant response rating, Nutsedge, Yellow","[10]; 31 g ai/ha, scale 0 to 100",0
same,"Plant response rating, Nutsedge, Yellow","[10]; 62 g ai/ha, scale 0 to 100",5
same,"Plant response rating, Oilseed Rape","[11]; 125 g ai/ha, scale of 0 to 100",100
same,"Plant response rating, Oilseed Rape","[11]; 16 g ai/ha, scale 0 to 100",50
same,"Plant response rating, Oilseed Rape","[11]; 31 g ai/ha, scale 0 to 100",80
same,"Plant response rating, Oilseed Rape","[11]; 62 g ai/ha, scale 0 to 100",85
same,"Plant response rating, Ragweed","[12]; 125 g ai/ha, scale of 0 to 100",50
same,"Plant response rating, Ragweed","[12]; 16 g ai/ha, scale 0 to 100",55
same,"Plant response rating, Ragweed","[12]; 31 g ai/ha, scale 0 to 100",35
same,"Plant response rating, Ragweed","[12]; 62 g ai/ha, scale 0 to 100",40
same,"Plant response rating, Ryegrass, Italian","[13]; 125 g ai/ha, scale of 0 to 100",85
same,"Plant response rating, Ryegrass, Italian","[13]; 16 g ai/ha, scale 0 to 100",0
same,"Plant response rating, Ryegrass, Italian","[13]; 31 g ai/ha, scale 0 to 100",30
same,"Plant response rating, Ryegrass, Italian","[13]; 62 g ai/ha, scale 0 to 100",30
same,"Plant response rating, Soybean","[14]; 125 g ai/ha, scale of 0 to 100",30
same,"Plant response rating, Soybean","[14]; 16 g ai/ha, scale 0 to 100",15
same,"Plant response rating, Velvetleaf","[15]; 125 g ai/ha, scale of 0 to 100",100
same,"Plant response rating, Velvetleaf","[15]; 16 g ai/ha, scale 0 to 100",5
same,"Plant response rating, Velvetleaf","[15]; 31 g ai/ha, scale 0 to 100",30
same,"Plant response rating, Velvetleaf","[15]; 62 g ai/ha, scale 0 to 100",55
same,"Plant response rating, Waterhemp","[16]; 125 g ai/ha, scale of 0 to 100",100
same,"Plant response rating, Waterhemp","[16]; 16 g ai/ha, scale 0 to 100",100
same,"Plant response rating, Waterhemp","[16]; 31 g ai/ha, scale 0 to 100",100
same,"Plant response rating, Waterhemp","[16]; 62 g ai/ha, scale 0 to 100",100
same,"Plant response rating, Wheat","[17]; 125 g ai/ha, scale of 0 to 100",5
same,"Plant response rating, Wheat","[17]; 16 g ai/ha, scale 0 to 100",0
same,"Plant response rating, Wheat","[17]; 31 g ai/ha, scale 0 to 100",0
same,"Plant response rating, Wheat","[17]; 62 g ai/ha, scale 0 to 100",0
